Experimental data from paper PMC9497135, “Structure-Based Study to Overcome Cross-Reactivity of Novel Androgen Receptor Inhibitors” (Cells, 2022).
Residue numbers refer to the chain shown, from its start.

Assays:
[1] = tested on: AR with T878A and W742C mutations; design: method as in PMID 12517791; conditions: cited from earlier work
[2] = target: T1, AR (LNCaP cells, which carry the T878A AR mutation) (Homo sapiens, UniProt P10275, T878A); test: eGFP cellular AR transcription assay in LNCaP cells (LN-ARR2PB-eGFP); type: cell-based; conditions: for Anti-AR activity in eGFP assay: eGFP-expressing LNCaP cells; for Partial agonistic effect in eGFP assay: with R1881, high concentrations
T1 construct: LNCaP cells, which carry the T878A AR mutation; endogenous in cells; host or cells: LNCaP (LN-ARR2PB-eGFP)
T1 sequence (P10275 1-920 T878A): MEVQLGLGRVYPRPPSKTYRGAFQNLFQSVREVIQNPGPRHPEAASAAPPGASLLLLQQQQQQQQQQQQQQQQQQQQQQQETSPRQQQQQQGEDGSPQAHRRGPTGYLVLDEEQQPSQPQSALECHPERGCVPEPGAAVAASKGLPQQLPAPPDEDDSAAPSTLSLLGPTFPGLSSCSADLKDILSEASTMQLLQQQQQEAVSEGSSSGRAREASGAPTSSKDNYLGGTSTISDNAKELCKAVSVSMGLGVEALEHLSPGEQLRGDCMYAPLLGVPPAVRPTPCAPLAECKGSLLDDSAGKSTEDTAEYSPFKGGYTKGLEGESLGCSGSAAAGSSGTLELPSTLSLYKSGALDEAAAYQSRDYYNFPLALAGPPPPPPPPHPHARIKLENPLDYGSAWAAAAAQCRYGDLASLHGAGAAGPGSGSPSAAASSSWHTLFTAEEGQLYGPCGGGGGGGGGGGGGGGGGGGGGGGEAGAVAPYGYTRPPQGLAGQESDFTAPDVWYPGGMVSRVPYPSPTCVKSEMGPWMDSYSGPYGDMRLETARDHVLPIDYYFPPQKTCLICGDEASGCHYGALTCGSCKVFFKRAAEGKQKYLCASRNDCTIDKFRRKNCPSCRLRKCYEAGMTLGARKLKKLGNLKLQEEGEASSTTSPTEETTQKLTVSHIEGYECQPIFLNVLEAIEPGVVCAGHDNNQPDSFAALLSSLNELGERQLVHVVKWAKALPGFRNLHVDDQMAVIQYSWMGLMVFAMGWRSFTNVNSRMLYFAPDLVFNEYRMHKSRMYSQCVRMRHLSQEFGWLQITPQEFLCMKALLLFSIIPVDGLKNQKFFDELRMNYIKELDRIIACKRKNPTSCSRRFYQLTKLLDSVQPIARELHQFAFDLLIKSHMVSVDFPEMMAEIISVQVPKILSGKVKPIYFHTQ
Method: AR transcriptional activity was assayed as previously described. Briefly, LNCaP human prostate cancer cells (LN-ARR2PB-eGFP), stably transfected with eGFP reporter driven by an androgen responsive probasin-derived promoter (ARR2PB), were grown in phenol red free RPMI 1640 media supplemented with 5% charcoal stripped serum (CSS). After 5 days, the cells were plated into a 96-well plate (35,000 cells/well) with 0.1 nM of the synthetic androgen R1881 and increasing concentrations (0−100 μM) of test compounds. Fluorescence (excitation 485 nm, emission 535 nm) was measured after 3 days of incubation with the compounds.

Androgen Receptor ABS = target: T2, Androgen Receptor ABS (Rattus norvegicus, UniProt P15207); test: Androgen (DHT) displacement, Polar Screen Androgen Receptor Competitor Green Assay Kit; type: binding; conditions: for Androgen displacement: at 50 µM; for Androgen Displacement (Yes/No): fluorescence polarization kit
T2 construct: purchased
T2 sequence (P15207 647-902 limits assumed): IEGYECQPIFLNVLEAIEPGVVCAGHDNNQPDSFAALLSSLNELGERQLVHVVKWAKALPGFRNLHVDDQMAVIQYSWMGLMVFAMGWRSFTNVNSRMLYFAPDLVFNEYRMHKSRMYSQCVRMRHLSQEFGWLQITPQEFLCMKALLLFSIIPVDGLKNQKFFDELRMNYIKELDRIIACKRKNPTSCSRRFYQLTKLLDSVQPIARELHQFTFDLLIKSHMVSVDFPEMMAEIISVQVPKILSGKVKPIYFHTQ
Method: Androgen displacement was assessed with the Polar Screen Androgen Receptor Competitor Green Assay Kit as per the instructions of the manufacturer.

T878A-AR mutant = target: T3, T878A-AR mutant (Homo sapiens, UniProt P10275, T878A); test: Luciferase reporter assay, PC3 cells transfected with T878A-AR; type: cell-based; conditions: T878A-AR, high concentrations, absence of R1881
T3 construct: Full-length human wild type AR was cloned into pcDNA3.1 expression plasmid; expressed in transfected cells; host or cells: PC3
T3 sequence (P10275 1-920 T878A): T1 sequence (P10275 1-920 T878A)
Method: Full-length human wild type AR was cloned into pcDNA3.1 expression plasmid (Invitrogen, Waltham, MA, USA) with a CMV promoter. The T878A mutant (T878A-AR) was generated with the Quikchange Mutagenesis Kit (Stratagene, San Diego, CA, USA) using hARWT plasmid as a template. Androgen-starved PC3 cells were seeded in 96-well plates (3000 cells/well) in RPMI 1640 + 5% CSS for 24 h followed by transfection with 50 ng of hARWT or hART878A along with 50 ng of ARR3tk-luciferase reporter construct (100 ng total plasmid DNA) and 0.3 µL/well TransIT20/20 transfection reagent (TT2020, Mirus, Madison, Wisconsin, WI, USA) for 48 h. […] Cell lysis was carried out with 60 µL 1X passive lysis buffer/well (Promega, Madison, Wisconsin, WI, USA). The luminescence from 20 µL of cell lysate and 50 µL of Luciferase assay reagent (Promega, Madison, Wisconsin, WI, USA) was recorded on a TECAN M200pro plate reader.

wild type AR LBD = target: T4, wild type AR LBD (Homo sapiens, UniProt P10275); test: Biolayer interferometry (BLI), wild type LBD; type: binding
T4 construct: made in house; host or cells: E. coli BL21-DE3 co-transformed with pBirACm
T4 sequence (P10275 669-900 limits assumed): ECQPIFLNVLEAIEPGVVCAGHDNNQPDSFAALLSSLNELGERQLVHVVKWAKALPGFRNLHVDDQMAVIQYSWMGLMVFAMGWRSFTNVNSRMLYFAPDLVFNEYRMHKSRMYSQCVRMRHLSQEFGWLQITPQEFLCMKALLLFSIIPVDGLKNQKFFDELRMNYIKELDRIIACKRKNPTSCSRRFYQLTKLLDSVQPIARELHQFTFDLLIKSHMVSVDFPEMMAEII
Method: (§1) The direct reversible interaction between small molecules and the AR was quantified by BLI using OctetRED (ForteBio, Fremont, CA, USA). The wild type and T878A-LDB in fusion with an N-terminal (His)6-avidin ([…]) tag were expressed in E. coli BL21-DE3 cells co-transformed with pBirACm plasmid (Avidity), which expresses a biotin ligase leading to the biotynilation of the avidin tag on the LBD. Cells were grown in LB media at 37 °C to an OD600nm = 0.5 and then induced with 0.5 mM isopropyl-β-D-thiogalactoside. A measure of 20 µM of dihydrotestosterone (DHT) and 0.15 mM biotin were added and the cells were incubated at 16 °C for 18 to 20 h. Cells were then resuspended and lysed in buffer containing 500 mM Li2SO4, 50mM HEPES pH7.2, 10% Glycerol, 0.1% Octyl-beta-Glucoside, 20 µM of DHT, 5 mM β-mercaptoethanol, 10 mM imidazole and 0.1 mM phenylmethanesulfonyl fluoride. […] After an overnight dialysis against 150 mM Li2SO4, 50 mM HEPES pH7.2, 10% Glycerol, 0.1% Octyl-beta-Glucoside, 20 µM of DHT and 0.2 mM tris(2-carboxyethyl)phosphine, purified proteins at 50 µg/mL were bound to the super-streptavidin sensors overnight at 4 °C. The assay was performed at 20 °C in the dialysis buffer supplemented with 5% dimethyl sulfoxide (DMSO) which was also used as our reference measurement.

T878A AR LBD = target: T5, T878A AR LBD (Homo sapiens, UniProt P10275, T878A); test: Biolayer interferometry (BLI), T878A LBD; type: binding
T5 construct: made in house; host or cells: E. coli BL21-DE3 co-transformed with pBirACm
T5 sequence (P10275 669-900 T878A limits assumed): T4 sequence (P10275 669-900 limits assumed) with T210A
Method: as §1

[3] = LNCaP eGFP reporter (ARR2PB promoter), 0.1 nM R1881, 3 days

Row | SMILES | Reporter eGFP IC50 [2, 3] | Anti-AR activity in eGFP assay [2] | Partial agonistic effect in eGFP assay ([2]; LNCaP) | Androgen displacement (Androgen Receptor ABS) [%] | Androgen Displacement (Yes/No) (Androgen Receptor ABS) | other results
1 | C[C@](O)(CS(=O)(=O)c1ccc(F)cc1)C(=O)Nc1ccc(C#N)c(C(F)(F)F)c1 [R-bicalutamide] | – | – | – | – | – | Agonist behaviour on mutated AR [1]: acts as an agonist only when the T878A mutation is also coupled with W742C
2 | c1cc2c(cc1-c1csc(N3CCOCC3)n1)CCCC2 [VPC14291] | inactive | lost their anti-AR activity | – | – | – | –
3 | c1sc(N2CCOCC2)nc1C1CCCC1 [VPC14403] | inactive | lost their anti-AR activity | – | – | – | –
4 | c1cc(-c2csc(N3CCOCC3)n2)cs1 [VPC14404] | – | maintained good potency | no undesired partial agonistic effects were observed | <10 | – | –
5 | c1sc(N2CCOCC2)nc1C1CCCCC1 [VPC14406] | inactive | lost their anti-AR activity | – | – | – | –
6 | c1cc(-c2csc(N3CCOCC3)n2)ccn1 [VPC14435] | – | maintained good potency | no undesired partial agonistic effects were observed | – | No | –
7 | c1ccc(-c2csc(N3CCOCC3)n2)nc1 [VPC14436] | – | – | – | – | No | –
8 | c1cncc(-c2csc(N3CCOCC3)n2)c1 [VPC14439] | – | – | – | 30 | Yes | Concentration above which partial agonism is seen in the eGFP assay ([2]; LNCaP, 0.1 nM R1881): above 3 µM
9 | Brc1ncn(-c2csc(N3CCOCC3)n2)c1Br [VPC14449] | – | maintained good potency | no undesired partial agonistic effects were observed | < 10 | – | IC50 [2, 3]: 150 ± 40 nM; Reduction of AR stimulation in comparison with VPC14368 (T878A-AR mutant): ~ 80%; Direct binding to wild-type LBD by BLI (wild type AR LBD): not binding; Direct binding to T878A LBD by BLI (T878A AR LBD): not binding; Androgen displacement (Androgen Receptor ABS; listed as 14449): <10%
